Assay results published in US10131635B2, “Compositions and methods of using the compositions for plaque softening” (ALUMEND, LLC, priority 2013, dated 2018).

Experiments:
[1] = test system: calcified plaque in postmortem diseased femoral arteries; test: IVUS analysis of human cadaveric arterial samples (echogenicity)
Source text: The following equipment was used in this Example: IVUS, Boston Scientific iLab 120 CARTR, UPN Product number: H749iLab120CARTRO, manufactured April 2011, Serial number 7347. The software is iReview version 1.0. The catheter is Boston Scientific Atlantis SR Pro 40 MHz Coronary Imaging Catheter, catalog number 38942, 3.6 F×135 cm.
IVUS images have identified different types of plaque, e.g., soft, mixed, hard, and calcified. M. Sahara, et al., “Soft Plaque Detected on Intravascular Ultrasound Is the Strongest Predictor of In-Stent Restenosis: an Intravascular Ultrasound Study,” European Heart Journal, 25: 2026-2033 (2004), the disclosure of which is hereby incorporated by reference. For example, calcified plaque has been identified by two characteristics, i.e., a high echogenicity resulting in an intense reflection (bright white) and the presence of an acoustic shadow behind the plaque because the ultrasound cannot penetrate the calcified plaque.
Postmortem diseased femoral arteries (both left and right) were received approximately 16 hours after the time of death. The samples were inspected to assess the level of disease. When palpated both the right and left arteries were extremely hard and rigid throughout the entire length of both arteries. Occlusion was visually judged as ranging from 20-60%. The artery was placed in PBS and IVUS pullback (0.5 mm/s) was completed three times (PRE 1, PRE 2, PRE 3). […] The artery was thoroughly rinsed with PBS to remove any excess plaque-softening compound. The artery was then placed into PBS and an IVUS pullback was conducted three times (SOAK 1, SOAK 2, SOAK 3). A balloon angioplasty catheter was placed into the artery and inflated to the reference vessel diameter (RVD) without any overstrech. A radially emitting light fiber was inserted into the catheter and centered in the angioplasty balloon. The composition was activated by exposure to blue light (447 nm) at an intensity of 1800 mW for 60 seconds. The balloon catheter was removed and an IVUS pullback was completed three times (POST 1, POST 2, POST 3).
Each frame of each pullback (PRE 1, PRE 2, PRE 3, SOAK 1, SOAK 2, SOAK 3, POST 1, POST 2, POST 3) was analyzed and calcified plaque was identified including the acoustic shadow behind each area of plaque. FIGS. 15a and 15b are the IVUS images from frame 921 of PRE 1 and illustrate the existence of plaque. For each frame, the intensity of each gray pixel (based upon 255 shades of gray, “AVI” format and 521×521 pixels) within the arterial wall was determined. FIG. 17 is a histogram illustrating the gray scale of frame 921, PRE 1, wherein the y-axis is the pixel count and the x-axis is the pixel intensity. So, for example, there were a lot of pixels having a pixel intensity of 16 and very few pixels having a pixel intensity of 168. It is known that the relative amount of hypo-echogenic and hyper-echogenic reflections can be used to measure the change in calcified plaque. See S. Brugaletta, et al., “Serial In Vivo Intravascular Ultrasound-Based Echogenicity Changes of Everolimus-eluting Bioresorbable Vascular Scaffold During the First 12 Months After Implantation,” JACC: Cardiovascular Interventions, 4 (12):1281-1289 (2011), the disclosure of which is hereby incorporated by reference. For example, it is known that pixels with a gray scale intensity of 92 or lower were judged to be hypo-echogenic and those with a gray scale intensity of 93 or higher were judged to be hyper-echogenic. To be clear, in the instant Example, the mean gray value of the adventitia was used to classify tissue components as either hypo- or hyper-echogenic. One of ordinary skill in the art could easily determine the gray scale threshold for any data set in order to classify tissue components as either hypo- or hyper-echogenic.
The pixel intensity of the entire IVUS pullback data was analyzed as a single data set. […]

artery = test: Arterial compression by other photoactivated material; details: FIG. 13
Description: Singlet oxygen generating species, such as Rose Bengal, riboflavin, and methylene blue were tested to determine if they would be effective at arterial compression.

[2] = Linker solution hydrolysis (release of drug mimic, HPLC, first order rate constant); type: physicochemical; details: 37° C.
Description: The hydrolysis rate of a linker was studied without attachment to a naphthalimide compound or tissue attachment under physiological conditions. The work verified the expected hydrolysis rate and when combined with ex vivo data allows the influence of the tissue on the hydrolysis rate to be determined.
A 20 mg/mL stock solution of a drug mimic, such as an FITC derivative, was prepared by weighing out approximately 20 mg of material and diluting with 1 mL of H20. The release rate of each compound, the free mimic from its respective linker, was studied in duplicate as a function of time and pH (phosphate buffered saline (PBS) at pH=1, pH=7.4, and pH=10). The starting concentration for each preparation was 400 μg/mL of drug mimic with attached linker (20 μL of stock solution diluted with 980 μL of hydrolysis PBS). In order to more accurately mimic clinical conditions samples were prepared and stored in a 37° C. oven with slow agitation using a rotating mixer until analyzed using HPLC. The concentration of the target complex was determined in duplicates at multiple time points (t=0, 8, 24, 48, 72, 144, 216 hours) using the HPLC conditions below and quantitation using a standard curve. A 2 mg/mL stock solution of the target complex was prepared by weighing out approximately 20 mg of target complex and diluting with 10 mL of H2O. The following concentrations from the stock solution were prepared by performing serial dilutions in H2O:
Quantitation using a standard curve was used to determine the amount of drug mimic released (μg) at each time point and duplicate sample preparations at each time point were averaged. […] The detection limit of the method was 1 μg/mL. The standard curve for 3-phenylpropanol was also linear over the range of 1 μg/mL to 100 μg/mL with a detection limit of the method at 1 μg/mL.
Using the HPLC release data calculated for the free Bn and 3PP, shown below, kinetic curves were plotted (concentration vs time) for each compound using PSI Plot. The concentration was fit to a first order kinetic equation, where CT=CF−Cce^−kt (CT is the concentration at each time point (μg), CF is the final concentration (μg), Cc is the change in concentration (μg), and k is the rate constant (hr^−1). If the reaction rate didn't display first order kinetics (ie: there was a systematic deviation between the experimental points and the calculated rate constant) other kinetic models were examined. Typically data was collected until at least 90% of the expected product was released. A sample kinetic curve is shown in FIG. 15B.
The HPLC method was able to determine the identity of each compound and the component linker and drug mimic by the retention time as shown in the Table below. • Analytical Column: Alltima HP Rocket C18 3μ 53 mm×7 mm • Mobile Phase: A: 0.1% Trifluoroacetic acid(aq) (TFA), • B: 9:1 Acetonitrile:Water (0.1% TFA) • Gradient: 95% A hold for 1 minute, then ramp to 65% B at 7 minutes, hold for 0.5 minutes • (Equilibration time 5 minutes) • Detector: PDA detector at 440 nm Fluorescence detector excitation wavelength at nm emission wavelength at nm • Injection Volume: 20 μL • Flow Rate: 2.5 mL/min
Using the concentration versus time data, a rate constant was calculated for each compound at various pHs. […] The enhanced rate for the hydrolysis of the Gly/Bn is likely due to the formation of an internal 5 membered ring that would be autocatalytic.

SMILES	efficacy at arterial compression (artery)	hydrolysis rate constant k ([2]; pH 1, PBS)	hydrolysis rate constant k ([2]; pH 7.4, PBS)	hydrolysis rate constant k ([2]; pH 10, PBS)	other results
Nc1ccc2c3c(cccc13)C(=O)NC2=O [4-amino-1,8-naphthalimide]					flexibility of artery after treatment ([1]; after soak, balloon and light activation): more flexible and softer; Hypo-Echogenic pixels/Hyper-Echogenic pixels ([1]; entire IVUS pullback data, POST (soak plus balloon and 447 nm 1800 mW 60 seconds)): 5.011; Hypo-Echogenic pixels/Hyper-Echogenic pixels ([1]; entire IVUS pullback data, SOAK (2.5 mM, 5 minutes)): 4.699; Hypo-Echogenic pixels/Hyper-Echogenic pixels ([1]; frame 921, POST): 12.556; Hypo-Echogenic pixels/Hyper-Echogenic pixels ([1]; frame 921, SOAK): 7.500; Hypo-Echogenic pixels/Hyper-Echogenic pixels ([1]; frame 2925, POST): 21.050; Hypo-Echogenic pixels/Hyper-Echogenic pixels ([1]; frame 2925, SOAK): 9.043
O=C([O-])c1c(Cl)c(Cl)c(Cl)c(Cl)c1-c1c2cc(I)c(=O)c(I)c-2oc2c(I)c([O-])c(I)cc12.[Na+].[Na+] [Rose Bengal]	No efficacy was observed				
NCC(=O)OCCCc1ccccc1 [Gly/3PP, 3-Phenylpropyl Glycinate]		0.004 h⁻¹	0.082 h⁻¹	0.155 h⁻¹	
Cc1cc2nc3c(=O)[nH]c(=O)nc-3n(C[C@H](O)[C@H](O)[C@H](O)CO)c2cc1C [riboflavin]	No efficacy was observed				
NCC(=O)OCc1ccccc1 [Gly/Bn, Benzyl Glycinate]		0.002 h⁻¹	0.311 h⁻¹	0.156 h⁻¹	
NCCCC(=O)OCc1ccccc1 [GABA/Bn, Benzyl GABA]		0.026 h⁻¹	0.011 h⁻¹	0.226 h⁻¹	
CN(C)c1ccc2nc3ccc(=[N+](C)C)cc-3sc2c1 [methylene blue]	No efficacy was observed				
NCCCC(=O)OCCCc1ccccc1 [GABA/3PP, 3-Phenylpropyl GABA]		0.034 h⁻¹	0.010 h⁻¹	0.124 h⁻¹	
